This experiment concerns K24384-001-R-PDC complex spheroid viability. Put plainly: Anticancer human tumor K24384-001-R-PDC patient-derived pancreatic adenocarcinoma cell line growth inhibition. The conditions noted are these: for viability, T/C: stronger effect = lower value. The procedure, abridged: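 Drug combinations with the LSD1 inhibitor iadademstat tested on tumor cells co-cultured as spheroids with endothelial cells and mesenchymal stem cells. Concentrations descended in half-log increments from clinical Cmax or 10 microM.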

The record followed here is PubChem BioAssay AID1918949 (Molecular Pharmacology Branch, DTP, NCI, 2023).

Several values for one entry are separate records, joined by “and”; a condition that tells them apart may be missing. Equal entries are not always repeated.
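Further: spheroids exposed to agents for seven days before luminescence viability reading.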
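Wherever viability, T/C is given: 100% = DMSO vehicle control viability.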

As a reminder, the IC50 is the midpoint of a concentration-inhibition curve. As a reminder, the viability, T/C is the ratio of treated to control. Consider `CC1(C)CCC(CN2CCN(c3ccc(C(=O)NS(=O)(=O)c4ccc(NCC5CCOCC5)c([N+](=O)[O-])c4)c(Oc4cnc5[nH]ccc5c4)c3)CC2)=C(c2ccc(Cl)cc2)C1` + NC1CC1c1ccc(-c2cccc(O)c2)cc1, for which the half-inhibitory concentration (IC50) runs as follows: (curve of first compound, second compound 0.1 µM) 3350 nM; (curve of first compound, second compound 0.316 µM) 2600 nM; (curve of first compound, second compound 1 µM) 2680 nM; (curve of first compound, second compound 3.16 µM) 2690 nM; (curve of first compound, second compound 10 µM) 1950 nM. Further, the viability, T/C is 90.7% (second compound 0.1 µM, first compound 0.0316 µM); 83.9% (second compound 0.1 µM, first compound 0.1 µM); 88.3% (second compound 0.1 µM, first compound 0.316 µM); 87.6% (second compound 0.1 µM, first compound 1 µM); 52.6% (second compound 0.1 µM, first compound 3.16 µM); 0.98% (second compound 0.1 µM, first compound 10 µM). In addition, the viability, T/C was 82.7% (second compound 0.316 µM, first compound 0.0316 µM); 76.7% (second compound 0.316 µM, first compound 0.1 µM); 90% (second compound 0.316 µM, first compound 0.316 µM); 80.4% (second compound 0.316 µM, first compound 1 µM); 43.7% (second compound 0.316 µM, first compound 3.16 µM); 1.07% (second compound 0.316 µM, first compound 10 µM). The viability, T/C reads like this: (second compound 1 µM, first compound 0.0316 µM) 91.5%; (second compound 1 µM, first compound 0.1 µM) 63.7%; (second compound 1 µM, first compound 0.316 µM) 63.8%; (second compound 1 µM, first compound 1 µM) 83.3%; (second compound 1 µM, first compound 3.16 µM) 45.7%; (second compound 1 µM, first compound 10 µM) 0.94%. In addition, the viability, T/C (second compound 3.16 µM, first compound 0.0316 µM) was 83.3%; the viability, T/C (second compound 3.16 µM, first compound 0.1 µM) was 93.2%; the viability, T/C (second compound 3.16 µM, first compound 0.316 µM) is 78.8%; the viability, T/C (second compound 3.16 µM, first compound 1 µM) is 71%; the viability, T/C (second compound 3.16 µM, first compound 3.16 µM) is 46.9%; the viability, T/C (second compound 3.16 µM, first compound 10 µM) is 0.99%. In addition, the viability, T/C (second compound 10 µM, first compound 0.0316 µM) was 86.3%; the viability, T/C (second compound 10 µM, first compound 0.1 µM) was 81.5%; the viability, T/C (second compound 10 µM, first compound 0.316 µM) was 67.9%; the viability, T/C (second compound 10 µM, first compound 1 µM) is 62.4%; the viability, T/C (second compound 10 µM, first compound 3.16 µM) was 44.4%; the viability, T/C (second compound 10 µM, first compound 10 µM) is 1%.

As for `NS(=O)(=O)OCC1CC(n2ccc3c(NC4CCc5ccccc54)ncnc32)CC1O` (centres undefined), the viability, T/C (compound 0.00949 µM) was 98.5% and 116%; the viability, T/C (compound 0.03 µM) is 123% and 143%; the viability, T/C (compound 0.0949 µM) is 109% and 126%; the viability, T/C (compound 0.3 µM) is 52.2% and 53.9%; the viability, T/C (compound 0.949 µM) was 34.3% and 34.6%; the viability, T/C (compound 3 µM) is 19.9% and 22.4%. In addition, the half-maximal inhibitory concentration (IC50) (curve of compound) is 338 nM and 362 nM.

Consider `NC1CC1c1ccc(-c2cccc(O)c2)cc1` (centres undefined), for which the viability, T/C (compound 0.1 µM) is 108%. Besides, under “compound alone, run of 02/21/2022”, the 50% inhibitory concentration (IC50) was more than 10000 nM.
